# Biological target: Transient receptor potential cation channel subfamily A member 1 (Homo sapiens, UniProt O75762)
# Assay: FLIPR Calcium Assay: Ca2+ influx was measured using a FLIPR calcium assay kit (R8033; Molecular Devices, Sunnyvale, Calif.). The Ca2+ indicator dye was dissolved in Hanks' balanced salt solution supplemented with 20 mM HEPES buffer (HBSS/HEPES) according to the manufacturer instructions. Prior to start of the assay, the medium was removed by aspiration, and cells were loaded with 100 μL Ca2+ dye for 2 to 3 hours at room temperature. […] (4×) solutions of the test compounds were prepared in HBSS/HEPES, and 50 μL were added to the cells at a delivery rate of 10 μL/sec. Changes in fluorescence were measured over time in a fluorometric imaging plate reader (FLIPR, Molecular Devices). Two additions were made over the course of an experimental run. For agonist experiments, assay buffer was added at the 10 s time point, followed by addition of agonist at the 3 minute 10 sec time point.
# Sequence of Transient receptor potential cation channel subfamily A member 1 (O75762 whole entry): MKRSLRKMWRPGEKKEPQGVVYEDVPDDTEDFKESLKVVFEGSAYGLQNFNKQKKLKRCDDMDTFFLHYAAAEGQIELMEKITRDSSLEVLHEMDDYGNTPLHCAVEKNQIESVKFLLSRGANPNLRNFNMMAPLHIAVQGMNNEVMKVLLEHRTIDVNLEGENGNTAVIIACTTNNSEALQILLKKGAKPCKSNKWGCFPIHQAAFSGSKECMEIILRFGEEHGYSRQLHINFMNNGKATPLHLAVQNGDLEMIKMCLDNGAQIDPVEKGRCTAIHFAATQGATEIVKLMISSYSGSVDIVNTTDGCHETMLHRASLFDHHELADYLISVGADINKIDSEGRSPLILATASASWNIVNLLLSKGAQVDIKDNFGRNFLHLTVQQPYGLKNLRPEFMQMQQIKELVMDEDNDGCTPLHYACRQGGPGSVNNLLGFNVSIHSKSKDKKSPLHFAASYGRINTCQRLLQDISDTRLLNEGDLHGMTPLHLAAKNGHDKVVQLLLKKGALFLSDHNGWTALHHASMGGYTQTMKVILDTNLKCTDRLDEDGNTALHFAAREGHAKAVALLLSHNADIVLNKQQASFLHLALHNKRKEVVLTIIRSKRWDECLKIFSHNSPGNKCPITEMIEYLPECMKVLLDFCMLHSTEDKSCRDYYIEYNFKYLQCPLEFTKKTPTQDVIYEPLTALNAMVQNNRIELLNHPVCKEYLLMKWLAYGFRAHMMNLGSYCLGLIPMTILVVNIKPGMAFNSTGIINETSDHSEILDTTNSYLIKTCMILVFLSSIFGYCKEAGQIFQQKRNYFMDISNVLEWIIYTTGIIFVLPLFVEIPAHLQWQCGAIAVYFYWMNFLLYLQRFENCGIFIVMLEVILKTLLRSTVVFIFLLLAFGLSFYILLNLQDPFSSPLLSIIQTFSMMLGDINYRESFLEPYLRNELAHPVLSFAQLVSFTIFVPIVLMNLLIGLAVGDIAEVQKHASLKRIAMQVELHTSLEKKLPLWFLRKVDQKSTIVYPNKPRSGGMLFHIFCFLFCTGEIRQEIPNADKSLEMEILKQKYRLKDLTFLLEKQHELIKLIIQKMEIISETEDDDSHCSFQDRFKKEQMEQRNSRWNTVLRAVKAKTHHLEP
row,Structure (SMILES),IC50
1,CCC(=N\OC)/C(C)=C/c1ccc(F)cc1,8.3 µM
2,CCC(=N\O)/C(C)=C/c1ccc(F)c(C#N)c1,> 100 µM

# Reference: ChEMBL document CHEMBL3639113, “TRPA1 antagonists” (2015)
